Data reported in patent publication US20220119354A1, “DIAMINO-SUBSTITUTED PYRIDINES AND PYRIMIDINES AS HERBICIDES” (FMC Corporation, priority 2019, published 2022).

Assays:
Format in all cases: in vivo
[1] = tested on: barnyardgrass (Echinochloa crus-galli); test: Test A preemergence, barnyardgrass; conditions: 0 to 100 scale; for Barnyardgrass plant response rating: 0 is no effect, 100 is complete control
Summary of the method: (§1)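 Ratings reflect visual comparison with untreated controls roughly 10 d after greenhouse application, 0 meaning no effect and 100 complete control. Treatment was by directed soil spray at planting or by spray onto one- to two-leaf plants in loam/sand pots.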

kochia (Kochia scoparia) [2] = test: Test A preemergence, kochia; conditions: 0 to 100 scale; for Kochia plant response rating: 0 is no effect, 100 is complete control
Summary of the method: as §1

[3] = tested on: ragweed (common ragweed, Ambrosia elatior); test: Test A preemergence, ragweed; conditions: 0 to 100 scale; for Ragweed plant response rating: 0 is no effect, 100 is complete control
Summary of the method: as §1

[4] = tested on: ryegrass, Italian (Lolium multiflorum); test: Test A preemergence, Italian ryegrass; conditions: 0 to 100 scale; for Ryegrass, Italian plant response rating: 0 is no effect, 100 is complete control
Summary of the method: as §1

[5] = tested on: foxtail, giant (Setaria faberii); test: Test A preemergence, giant foxtail; conditions: 0 to 100 scale; for Foxtail, Giant plant response rating: 0 is no effect, 100 is complete control
Summary of the method: as §1

[6] = tested on: pigweed (Amaranthus retroflexus); test: Test A preemergence, pigweed; conditions: 0 to 100 scale; for Pigweed plant response rating: 0 is no effect, 100 is complete control
Summary of the method: as §1

[7] = tested on: barnyardgrass (Echinochloa crus-galli); test: Test A postemergence, barnyardgrass; conditions: 0 to 100 scale
Summary of the method: as §1

kochia (Kochia scoparia) [8] = test: Test A postemergence, kochia; conditions: 0 to 100 scale
Summary of the method: as §1

[9] = tested on: ragweed (common ragweed, Ambrosia elatior); test: Test A postemergence, ragweed; conditions: 0 to 100 scale
Summary of the method: as §1

[10] = tested on: ryegrass, Italian (Lolium multiflorum); test: Test A postemergence, Italian ryegrass; conditions: 0 to 100 scale
Summary of the method: as §1

[11] = tested on: foxtail, giant (Setaria faberii); test: Test A postemergence, giant foxtail; conditions: 0 to 100 scale
Summary of the method: as §1

[12] = tested on: pigweed (Amaranthus retroflexus); test: Test A postemergence, pigweed; conditions: 0 to 100 scale
Summary of the method: as §1

[13] = tested on: wheat (Triticum aestivum); test: Test A postemergence, wheat; conditions: 0 to 100 scale
Summary of the method: as §1

corn (Zea mays) = test: Test A postemergence, corn; conditions: 0 to 100 scale
Summary of the method: as §1

[14] = tested on: blackgrass (Alopecurus myosuroides); test: Test A postemergence, blackgrass; conditions: 0 to 100 scale
Summary of the method: as §1

[15] = tested on: galium (catchweed bedstraw, Galium aparine); test: Test A postemergence, galium; conditions: 0 to 100 scale
Summary of the method: as §1

rice (Oryza sativa) = test: Test B flooded paddy test, rice; conditions: Flood, 250 g ai/ha, applied to paddy water, 2-leaf stage, visual evaluation after 13 to 15 d
Summary of the method: (§2)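 Pots flooded to 3 cm above the soil when treated, with test compound added straight to the water and the flood maintained. Treated plants were at the 2-leaf stage and stayed 13–15 d in greenhouse. Response versus untreated controls scored visually from 0 (no effect) to 100 (complete control).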

[16] = tested on: sedge, umbrella (small-flower umbrella sedge, Cyperus difformis); test: Test B flooded paddy test, umbrella sedge; conditions: Flood, 250 g ai/ha, applied to paddy water, 2-leaf stage, visual evaluation after 13 to 15 d
Summary of the method: as §2

[17] = tested on: ducksalad (Heteranthera limosa); test: Test B flooded paddy test, ducksalad; conditions: Flood, 250 g ai/ha, applied to paddy water, 2-leaf stage, visual evaluation after 13 to 15 d
Summary of the method: as §2

[18] = tested on: barnyardgrass (Echinochloa crus-galli); test: Test B flooded paddy test, barnyardgrass; conditions: Flood, 250 g ai/ha, applied to paddy water, 2-leaf stage, visual evaluation after 13 to 15 d
Summary of the method: as §2

[19] = 125 g ai/ha, 0 no effect, 100 complete control
[20] = 500 g ai/ha, 0 no effect, 100 complete control

Cc1nc(NC(C)c2cc3ccccc3s2)nc(N)c1C(F)(F)F (stereo not drawn) [Compound 105]
Barnyardgrass plant response rating ([1]; 125 g ai/ha): 40
Barnyardgrass plant response rating ([1]; 500 g ai/ha): 60
Kochia plant response rating (kochia (Kochia scoparia) [2]; 125 g ai/ha): 90
Kochia plant response rating (kochia (Kochia scoparia) [2]; 500 g ai/ha): 100
Ragweed plant response rating ([3]; 125 g ai/ha): 100
Ragweed plant response rating ([3]; 500 g ai/ha): 100
Ryegrass, Italian plant response rating ([4]; 125 g ai/ha): 20
Ryegrass, Italian plant response rating ([4]; 500 g ai/ha): 90
Foxtail, Giant plant response rating ([5]; 125 g ai/ha): 40
Foxtail, Giant plant response rating ([5]; 500 g ai/ha): 100
Pigweed plant response rating ([6]; 125 g ai/ha): 100
Pigweed plant response rating ([6]; 500 g ai/ha): 100
Plant response rating, Barnyardgrass [7, 19]: 30
Plant response rating, Barnyardgrass [7, 20]: 60
Plant response rating, Kochia (kochia (Kochia scoparia) [8]; [19]): 80
Plant response rating, Kochia (kochia (Kochia scoparia) [8]; [20]): 100
Plant response rating, Ragweed [9, 19]: 70
Plant response rating, Ragweed [9, 20]: 100
Plant response rating, Ryegrass, Italian [10, 19]: 100
Plant response rating, Ryegrass, Italian [10, 20]: 100
Plant response rating, Foxtail, Giant [11, 19]: 0
Plant response rating, Foxtail, Giant [11, 20]: 60
Plant response rating, Pigweed [12, 19]: 0
Plant response rating, Pigweed [12, 20]: 60
Plant response rating, Wheat [13, 19]: 0
Plant response rating, Wheat [13, 20]: 0
Plant response rating, Corn (corn (Zea mays); [19]): 0
Plant response rating, Corn (corn (Zea mays); [20]): 0
Plant response rating, Blackgrass [14, 19]: 0
Plant response rating, Blackgrass [14, 20]: 0
Plant response rating, Galium [15, 19]: 90
Plant response rating, Galium [15, 20]: 90
Plant response rating, Rice (0 to 100 scale, 0 is no effect, 100 is complete control) (rice (Oryza sativa)): 0
Plant response rating, Sedge, Umbrella (0 to 100 scale, 0 is no effect, 100 is complete control) [16]: 0
Plant response rating, Ducksalad (0 to 100 scale, 0 is no effect, 100 is complete control) [17]: 0
Plant response rating, Barnyardgrass (0 to 100 scale, 0 is no effect, 100 is complete control) [18]: 0

CC(COc1cccc(F)c1)Nc1ncc(C(F)(F)F)c(N)n1 (stereo not drawn) [Compound 37]
Barnyardgrass plant response rating ([1]; 125 g ai/ha): 0
Plant response rating, Barnyardgrass ([1]; 500 g ai/ha): 0
Kochia plant response rating (kochia (Kochia scoparia) [2]; 125 g ai/ha): 0
Plant response rating, Kochia (kochia (Kochia scoparia) [2]; 500 g ai/ha): 0
Ragweed plant response rating ([3]; 125 g ai/ha): 0
Plant response rating, Ragweed ([3]; 500 g ai/ha): 100
Ryegrass, Italian plant response rating ([4]; 125 g ai/ha): 0
Plant response rating, Ryegrass, Italian ([4]; 500 g ai/ha): 0
Foxtail, Giant plant response rating ([5]; 125 g ai/ha): 0
Plant response rating, Foxtail, Giant ([5]; 500 g ai/ha): 0
Pigweed plant response rating ([6]; 125 g ai/ha): 50
Plant response rating, Pigweed ([6]; 500 g ai/ha): 70
Plant response rating, Barnyardgrass ([7]; 125 g ai/ha): 0
Plant response rating, Barnyardgrass ([7]; 500 g ai/ha): 0
Plant response rating, Kochia (kochia (Kochia scoparia) [8]; 125 g ai/ha): 0
Plant response rating, Kochia (kochia (Kochia scoparia) [8]; 500 g ai/ha): 0
Plant response rating, Ragweed ([9]; 125 g ai/ha): 0
Plant response rating, Ragweed ([9]; 500 g ai/ha): 0
Plant response rating, Ryegrass, Italian ([10]; 125 g ai/ha): 0
Plant response rating, Ryegrass, Italian ([10]; 500 g ai/ha): 0
Plant response rating, Foxtail, Giant ([11]; 125 g ai/ha): 0
Plant response rating, Foxtail, Giant ([11]; 500 g ai/ha): 0
Plant response rating, Pigweed ([12]; 125 g ai/ha): 0
Plant response rating, Pigweed ([12]; 500 g ai/ha): 40
Plant response rating, Wheat ([13]; 125 g ai/ha): 0
Plant response rating, Wheat ([13]; 500 g ai/ha): 0
Plant response rating, Corn (corn (Zea mays); 125 g ai/ha): 0
Plant response rating, Corn (corn (Zea mays); 500 g ai/ha): 0
Plant response rating, Blackgrass ([14]; 125 g ai/ha): 0
Plant response rating, Blackgrass ([14]; 500 g ai/ha): 0
Plant response rating, Galium ([15]; 125 g ai/ha): 20
Plant response rating, Galium ([15]; 500 g ai/ha): 40
Plant response rating, Rice (0 to 100 scale, 0 is no effect, 100 is complete control) (rice (Oryza sativa)): 0
Plant response rating, Sedge, Umbrella (0 to 100 scale, 0 is no effect, 100 is complete control) [16]: 0
Plant response rating, Ducksalad (0 to 100 scale, 0 is no effect, 100 is complete control) [17]: 0
Plant response rating, Barnyardgrass (0 to 100 scale, 0 is no effect, 100 is complete control) [18]: 0

CC[C@H](COc1cc(C)cc(C)c1)Nc1ncc(C(F)(F)F)c(N)n1 [Compound 27]
Plant response rating, Barnyardgrass ([1]; 125 g ai/ha): 10
Plant response rating, Barnyardgrass ([1]; 500 g ai/ha): 90
Plant response rating, Kochia (kochia (Kochia scoparia) [2]; 125 g ai/ha): 0
Plant response rating, Kochia (kochia (Kochia scoparia) [2]; 500 g ai/ha): 40
Plant response rating, Ragweed ([3]; 125 g ai/ha): 70
Plant response rating, Ragweed ([3]; 500 g ai/ha): 90
Plant response rating, Ryegrass, Italian ([4]; 125 g ai/ha): 30
Plant response rating, Ryegrass, Italian ([4]; 500 g ai/ha): 80
Plant response rating, Foxtail, Giant ([5]; 125 g ai/ha): 20
Plant response rating, Foxtail, Giant ([5]; 500 g ai/ha): 90
Plant response rating, Pigweed ([6]; 125 g ai/ha): 10
Plant response rating, Pigweed ([6]; 500 g ai/ha): 80
Plant response rating, Barnyardgrass ([7]; 125 g ai/ha): 0
Plant response rating, Barnyardgrass ([7]; 500 g ai/ha): 20
Plant response rating, Kochia (kochia (Kochia scoparia) [8]; 125 g ai/ha): 0
Plant response rating, Kochia (kochia (Kochia scoparia) [8]; 500 g ai/ha): 70
Plant response rating, Ragweed ([9]; 125 g ai/ha): 20
Plant response rating, Ragweed ([9]; 500 g ai/ha): 90
Plant response rating, Ryegrass, Italian ([10]; 125 g ai/ha): 0
Plant response rating, Ryegrass, Italian ([10]; 500 g ai/ha): 0
Plant response rating, Foxtail, Giant ([11]; 125 g ai/ha): 0
Plant response rating, Foxtail, Giant ([11]; 500 g ai/ha): 20
Plant response rating, Pigweed ([12]; 125 g ai/ha): 60
Plant response rating, Pigweed ([12]; 500 g ai/ha): 90
Plant response rating, Wheat ([13]; 125 g ai/ha): 0
Plant response rating, Wheat ([13]; 500 g ai/ha): 20
Plant response rating, Corn (corn (Zea mays); 125 g ai/ha): 0
Plant response rating, Corn (corn (Zea mays); 500 g ai/ha): 20
Plant response rating, Blackgrass ([14]; 125 g ai/ha): 10
Plant response rating, Blackgrass ([14]; 500 g ai/ha): 50
Plant response rating, Galium ([15]; 125 g ai/ha): 90
Plant response rating, Galium ([15]; 500 g ai/ha): 90
Plant response rating, Rice (0 to 100 scale, 0 is no effect, 100 is complete control) (rice (Oryza sativa)): 0
Plant response rating, Sedge, Umbrella (0 to 100 scale, 0 is no effect, 100 is complete control) [16]: 50
Plant response rating, Ducksalad (0 to 100 scale, 0 is no effect, 100 is complete control) [17]: 0
Plant response rating, Barnyardgrass (0 to 100 scale, 0 is no effect, 100 is complete control) [18]: 0
